Measurements as given in PubChem BioAssay AID1963833 (Molecular Pharmacology Branch, DTP, NCI, 2024).

Tested on: 883617-216-R-J1-PDC complex spheroid viability
Test: Anticancer human tumor 883617-216-R-J1-PDC patient-derived bladder carcinoma cell line growth inhibition [POLQ]
Conditions: for IC50: curve of first compound; for viability, T/C: stronger effect = lower value
Method in brief: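 Patient-derived tumour cells were co-cultured with HUVEC and mesenchymal stem cells as multicellular spheroids at 37 °C. They were treated with POLQ inhibitors (novobiocin, ART-558, RP6685) alone or combined with other agents. Top concentrations were at or near clinical Cmax (otherwise 10 microM; SN-38 at 1 microM), decreasing in half-log steps.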

[1] = second compound 0.0316 µM, first compound 0.0316 µM
[2] = second compound 0.0316 µM, first compound 0.1 µM
[3] = second compound 0.0316 µM, first compound 0.316 µM
[4] = second compound 0.0316 µM, first compound 1 µM
[5] = second compound 0.0316 µM, first compound 3.16 µM
[6] = second compound 0.0316 µM, first compound 10 µM
[7] = second compound 0.1 µM, first compound 0.0316 µM
[8] = second compound 0.1 µM, first compound 0.1 µM
[9] = second compound 0.1 µM, first compound 0.316 µM
[10] = second compound 0.1 µM, first compound 1 µM
[11] = second compound 0.1 µM, first compound 3.16 µM
[12] = second compound 0.1 µM, first compound 10 µM
[13] = second compound 0.316 µM, first compound 0.0316 µM
[14] = second compound 0.316 µM, first compound 0.1 µM
[15] = second compound 0.316 µM, first compound 0.316 µM
[16] = second compound 0.316 µM, first compound 1 µM
[17] = second compound 0.316 µM, first compound 3.16 µM
[18] = second compound 0.316 µM, first compound 10 µM
[19] = second compound 1 µM, first compound 0.0316 µM
[20] = second compound 1 µM, first compound 0.1 µM
[21] = second compound 1 µM, first compound 0.316 µM
[22] = second compound 1 µM, first compound 1 µM
[23] = second compound 1 µM, first compound 3.16 µM
[24] = second compound 1 µM, first compound 10 µM
[25] = second compound 3.16 µM, first compound 0.0316 µM
[26] = second compound 3.16 µM, first compound 0.1 µM
[27] = second compound 3.16 µM, first compound 0.316 µM
[28] = second compound 3.16 µM, first compound 1 µM
[29] = second compound 3.16 µM, first compound 3.16 µM
[30] = second compound 3.16 µM, first compound 10 µM
[31] = second compound 10 µM, first compound 0.0316 µM
[32] = second compound 10 µM, first compound 0.1 µM
[33] = second compound 10 µM, first compound 0.316 µM
[34] = second compound 10 µM, first compound 1 µM
[35] = second compound 10 µM, first compound 3.16 µM
[36] = second compound 10 µM, first compound 10 µM
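Note: spheroids exposed to compounds for seven days before readout.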
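Throughout, for viability, T/C: 100% = DMSO vehicle control viability.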

C#Cc1c(F)ccc2cc(O)cc(-c3ncc4c(N5CC6CCC(C5)N6)nc(OCC56CCCN5CC(F)C6)nc4c3F)c12 (stereo not drawn) + Nc1ccc(C#CCN(C(=O)Cc2ncc(C(F)(F)F)cc2C(F)(F)F)c2ccc(F)cc2)nn1
IC50 (second compound 0.0316 µM): > 10 µM | IC50 (second compound 0.1 µM): > 10 µM | IC50 (second compound 0.316 µM): > 10 µM | IC50 (second compound 1 µM): > 10 µM | IC50 (second compound 3.16 µM): > 10 µM | IC50 (second compound 10 µM): > 10 µM | viability, T/C [1]: 82% | viability, T/C [2]: 92.8% | viability, T/C [3]: 97.7% | viability, T/C [4]: 90.3% | viability, T/C [5]: 71.7% | viability, T/C [6]: 75.1% | viability, T/C [7]: 100% | viability, T/C [8]: 98.5% | viability, T/C [9]: 90.6% | viability, T/C [10]: 93.7% | viability, T/C [11]: 93% | viability, T/C [12]: 81% | viability, T/C [13]: 86.8% | viability, T/C [14]: 84.2% | viability, T/C [15]: 87.8% | viability, T/C [16]: 78.7% | viability, T/C [17]: 82.1% | viability, T/C [18]: 84.8% | viability, T/C [19]: 108% | viability, T/C [20]: 87.7% | viability, T/C [21]: 84.7% | viability, T/C [22]: 77.9% | viability, T/C [23]: 82.2% | viability, T/C [24]: 80.1% | viability, T/C [25]: 91.1% | viability, T/C [26]: 89.7% | viability, T/C [27]: 89.1% | viability, T/C [28]: 101% | viability, T/C [29]: 102% | viability, T/C [30]: 88.1% | viability, T/C [31]: 102% | viability, T/C [32]: 109% | viability, T/C [33]: 113% | viability, T/C [34]: 108% | viability, T/C [35]: 99.3% | viability, T/C [36]: 102%

C=CC(=O)N1CCN(c2nc(=O)n(-c3c(C)ccnc3C(C)C)c3nc(-c4c(O)cccc4F)c(F)cc23)C(C)C1 (stereo not drawn) + Nc1ccc(C#CCN(C(=O)Cc2ncc(C(F)(F)F)cc2C(F)(F)F)c2ccc(F)cc2)nn1
IC50 (second compound 0.0316 µM): > 10 µM | IC50 (second compound 0.1 µM): > 10 µM | IC50 (second compound 0.316 µM): > 10 µM | IC50 (second compound 1 µM): > 10 µM | IC50 (second compound 3.16 µM): > 10 µM | IC50 (second compound 10 µM): > 10 µM | viability, T/C [1]: 71.3% | viability, T/C [2]: 69.1% | viability, T/C [3]: 67.8% | viability, T/C [4]: 82.7% | viability, T/C [5]: 82.3% | viability, T/C [6]: 83.9% | viability, T/C [7]: 63.3% | viability, T/C [8]: 72.8% | viability, T/C [9]: 64.7% | viability, T/C [10]: 72% | viability, T/C [11]: 81.9% | viability, T/C [12]: 88.2% | viability, T/C [13]: 68.5% | viability, T/C [14]: 64.8% | viability, T/C [15]: 61.8% | viability, T/C [16]: 72.5% | viability, T/C [17]: 77.3% | viability, T/C [18]: 73.4% | viability, T/C [19]: 61.4% | viability, T/C [20]: 57.2% | viability, T/C [21]: 71.7% | viability, T/C [22]: 78.3% | viability, T/C [23]: 75.8% | viability, T/C [24]: 91.2% | viability, T/C [25]: 60.4% | viability, T/C [26]: 67.2% | viability, T/C [27]: 71.5% | viability, T/C [28]: 70.6% | viability, T/C [29]: 77.8% | viability, T/C [30]: 91% | viability, T/C [31]: 64.5% | viability, T/C [32]: 63.8% | viability, T/C [33]: 73.9% | viability, T/C [34]: 77.2% | viability, T/C [35]: 91.1% | viability, T/C [36]: 72.1%

CC(C)n1c(=O)n(C)c2cnc3cc(F)c(-c4ccc(OCCCN5CCCCC5)nc4)cc3c21 + Nc1ccc(C#CCN(C(=O)Cc2ncc(C(F)(F)F)cc2C(F)(F)F)c2ccc(F)cc2)nn1
IC50 (second compound 0.0316 µM): > 10 µM | IC50 (second compound 0.1 µM): > 10 µM | IC50 (second compound 0.316 µM): > 10 µM | IC50 (second compound 1 µM): > 10 µM | IC50 (second compound 3.16 µM): > 10 µM | IC50 (second compound 10 µM): > 10 µM | viability, T/C [1]: 95.3% | viability, T/C [2]: 94.5% | viability, T/C [3]: 96% | viability, T/C [4]: 108% | viability, T/C [5]: 82.6% | viability, T/C [6]: 75.6% | viability, T/C [7]: 95.7% | viability, T/C [8]: 114% | viability, T/C [9]: 87.6% | viability, T/C [10]: 100% | viability, T/C [11]: 95% | viability, T/C [12]: 69.8% | viability, T/C [13]: 112% | viability, T/C [14]: 89.5% | viability, T/C [15]: 98.9% | viability, T/C [16]: 119% | viability, T/C [17]: 80.8% | viability, T/C [18]: 73.8% | viability, T/C [19]: 108% | viability, T/C [20]: 104% | viability, T/C [21]: 113% | viability, T/C [22]: 104% | viability, T/C [23]: 92.2% | viability, T/C [24]: 72.7% | viability, T/C [25]: 101% | viability, T/C [26]: 95.7% | viability, T/C [27]: 104% | viability, T/C [28]: 98% | viability, T/C [29]: 98.3% | viability, T/C [30]: 76.4% | viability, T/C [31]: 117% | viability, T/C [32]: 121% | viability, T/C [33]: 120% | viability, T/C [34]: 103% | viability, T/C [35]: 109% | viability, T/C [36]: 81.8%

CC1COCCN1c1cc(C2(O)CC3CCC(C2)O3)c2cnn(-c3ccn[nH]3)c2n1 (stereo not drawn) + Nc1ccc(C#CCN(C(=O)Cc2ncc(C(F)(F)F)cc2C(F)(F)F)c2ccc(F)cc2)nn1
IC50 (second compound 0.0316 µM): 0.214 µM | IC50 (second compound 0.1 µM): 0.168 µM | IC50 (second compound 0.316 µM): 0.414 µM | IC50 (second compound 1 µM): 0.175 µM | IC50 (second compound 3.16 µM): 0.218 µM | IC50 (second compound 10 µM): 0.269 µM | viability, T/C [1]: 70.8% | viability, T/C [2]: 50.9% | viability, T/C [3]: 48% | viability, T/C [4]: 38.4% | viability, T/C [5]: 35% | viability, T/C [6]: 22.9% | viability, T/C [7]: 75.2% | viability, T/C [8]: 50.6% | viability, T/C [9]: 40.9% | viability, T/C [10]: 44.2% | viability, T/C [11]: 34.9% | viability, T/C [12]: 23.8% | viability, T/C [13]: 68.8% | viability, T/C [14]: 63.2% | viability, T/C [15]: 47.8% | viability, T/C [16]: 42.9% | viability, T/C [17]: 37.5% | viability, T/C [18]: 21.9% | viability, T/C [19]: 60.9% | viability, T/C [20]: 51.9% | viability, T/C [21]: 45.1% | viability, T/C [22]: 39.9% | viability, T/C [23]: 32.3% | viability, T/C [24]: 20.9% | viability, T/C [25]: 67% | viability, T/C [26]: 60.2% | viability, T/C [27]: 45.2% | viability, T/C [28]: 33.8% | viability, T/C [29]: 38.7% | viability, T/C [30]: 26.9% | viability, T/C [31]: 73.1% | viability, T/C [32]: 53.1% | viability, T/C [33]: 53.1% | viability, T/C [34]: 41.5% | viability, T/C [35]: 39.2% | viability, T/C [36]: 35.3%
